Results published in patent publication US20240182465A1 (GENFLEET THERAPEUTICS (SHANGHAI) INC., priority 2021, published 2024).

Assays:
[1] = biological target: T1, HPK1 (Homo sapiens, UniProt Q92918); assay: HPK1 kinase activity assay (ADP-Glo); details: HPK1 Kinase activity IC50 (nM), 1 nM HPK1, 10 μM ATP, 0.1 μg/μL MBP
T1 sequence (Q92918 1-346 limits assumed): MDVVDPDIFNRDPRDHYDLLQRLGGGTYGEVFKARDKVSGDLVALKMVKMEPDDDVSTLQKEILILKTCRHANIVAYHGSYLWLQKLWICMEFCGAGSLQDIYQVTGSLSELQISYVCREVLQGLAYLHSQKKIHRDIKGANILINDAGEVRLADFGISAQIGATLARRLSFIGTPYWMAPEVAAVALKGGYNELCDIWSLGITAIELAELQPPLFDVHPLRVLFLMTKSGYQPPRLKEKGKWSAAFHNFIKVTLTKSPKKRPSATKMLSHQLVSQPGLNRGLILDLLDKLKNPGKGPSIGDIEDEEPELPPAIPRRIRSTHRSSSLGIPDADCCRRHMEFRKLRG
Experimental: Preparation of buffer: 1× reaction buffer (40 mM Tris-HCl, 20 mM MgCl2, 0.01% Brij35, 50 μM DTT, 0.1 mg/ml BSA) was prepared using sterile water, which was prepared and used on the day of the experiment.
(§1) Preparation of 1000× drug stock plate: a 1000× compound stock plate was prepared. […] The compound stock plate was sealed with a sealing film and stored in a −20° C. refrigerator for later use.
Compound preparation and dosing: the 1000× drug stock plate was taken and melted at room temperature in the dark. Then 5× drug intermediate plate was prepared using reaction buffer and mixed well. 2 μL was transferred from the 5× drug intermediate plate into a 384-well plate, and negative control well and positive control well (in which 2 μL reaction buffer containing 0.5% DMSO was added) were set. Each point was repeated twice.
Preparation and incubation of reaction mixture: HPK1 protein was diluted to a 2.5× working solution with reaction buffer. 4 μL 2.5×HPK1 protein was added to each well containing test compound and positive control well, and 4 μL of reaction buffer without HPK1 protein was added to the negative control well. The obtained mixture was centrifuged at 1000 rpm for 1 min and then incubated in a 20° C. incubator for 15 min. A 2.5× mixed working solution of MBP protein and ATP was prepared with reaction buffer at concentrations of 0.5 μg/μL and 50 PM, respectively. 4 μL of the mixed working solution of MBP and ATP was added to each well, centrifuged at 1000 rpm for 1 min, and then incubated in a 20° C. incubator for 90 min.
ADP-Glo detection and reading plate: 10 μl ADP-Glo was added to each well of the test plate. The resulting mixture was centrifuged at 1000 rpm for 1 min and incubated in a 20° C. incubator for 60 min. Then 10 μL of the final incubation solution was transferred from the test plate to a new 384-well plate. 10 μL of kinase detection reagent was added to each well, centrifuged at 400 g for 1 min, and incubated in a 20° C. incubator for 60 min. Chemiluminescent signals were read by a microplate reader.

[2] = biological target: HPK1 (Homo sapiens, UniProt Q92918); assay: SLP76 phosphorylation assay (intracellular HPK1 inhibitory activity, p-SLP76 Ser376 sandwich ELISA); details: p-SLP76 IC50(nM), Jurkat, Clone E6-1 cells; 1 h compound pre-incubation, anti-CD3 beads stimulation 20 min; SLP76 phosphorylation at S376
Target sequence in this assay (Q92918 whole entry): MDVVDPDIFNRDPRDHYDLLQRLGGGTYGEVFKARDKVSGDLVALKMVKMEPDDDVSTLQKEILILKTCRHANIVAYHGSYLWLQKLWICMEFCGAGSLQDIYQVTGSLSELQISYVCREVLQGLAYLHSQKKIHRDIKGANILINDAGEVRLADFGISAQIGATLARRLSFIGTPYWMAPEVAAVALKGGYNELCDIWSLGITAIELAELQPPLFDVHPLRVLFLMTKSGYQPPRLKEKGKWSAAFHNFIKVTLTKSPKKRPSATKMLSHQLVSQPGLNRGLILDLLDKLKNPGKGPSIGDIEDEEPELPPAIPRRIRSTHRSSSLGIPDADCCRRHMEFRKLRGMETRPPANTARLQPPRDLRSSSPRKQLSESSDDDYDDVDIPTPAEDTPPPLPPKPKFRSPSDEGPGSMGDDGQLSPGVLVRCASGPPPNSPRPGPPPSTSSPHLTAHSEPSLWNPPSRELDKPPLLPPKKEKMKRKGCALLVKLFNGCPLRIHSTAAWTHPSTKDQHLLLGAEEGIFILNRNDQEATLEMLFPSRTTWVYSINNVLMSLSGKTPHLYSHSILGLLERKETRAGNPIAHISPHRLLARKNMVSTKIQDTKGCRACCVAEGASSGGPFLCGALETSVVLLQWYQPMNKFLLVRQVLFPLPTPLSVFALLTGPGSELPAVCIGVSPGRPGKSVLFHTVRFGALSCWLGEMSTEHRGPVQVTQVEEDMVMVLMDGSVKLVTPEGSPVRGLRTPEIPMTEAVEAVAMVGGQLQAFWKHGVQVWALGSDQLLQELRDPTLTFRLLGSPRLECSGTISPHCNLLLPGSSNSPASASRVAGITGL
Experimental: Intracellular HPK1 inhibitory activity was tested by the detection of SLP76 phosphorylation at S376.
as §1
Preparation of Beads wash buffer: 0.1 mL FBS and 0.4 mL 0.5 M EDTA (with a final concentration of 2 mM) were added to 100 mL PBS and stored in a 4° C. refrigerator for later use.
100× Protease Inhibitor Cocktail in 1/20 total volume was added and stored on wet ice for later use. The buffer was ready to use.
Cell inoculation and dosing: the 1000× drug stock plate was taken and melted at room temperature in the dark. […] Jurkat cells in the logarithmic growth phase were selected and collected. […] The cells were inoculated into a 96-well plate (the volume was 90 μL per well), and a blank control well (without cells inoculation, and in which 110 μL of medium was added) was set. 10 μL of a drug-containing culture medium (10×) was transferred from the 10× drug intermediate plate into the 96-well cell plate (with a final concentration of 0.1% DMSO), and set a DMSO control group (in which 0.1% DMSO was added to the treated cells), a stimulated control group (in which 10 μL of culture medium was added to treat cells) and an unstimulated group (in which 10 μL of culture medium was added to treat cells). The wells were duplicated, gently patted, mixed, and then placed into a 5% CO2 incubator at 37° C. for 1 h.
Anti-CD3 beads stimulation: Dynabeads anti-human CD3 was taken, shaken, and mixed for 60 s. The required volume of beads was pipetted, and an equal volume or at least 1 mL of washing solution was added to wash once. Fresh complete medium was then added to resuspend and adjust the density of the beads to 4×10^7/mL, and the beads were placed on ice for later use. At the end of drug pre-incubation, the cell culture plate was taken out. 10 μL Dynabeads anti-human CD3 was added to each well to treat the cells, and 10 μL the culture medium was added to the unstimulated group. The cell culture plate was shaken to mix well at 2500 rpm for 10 s, and then placed into a 5% CO2 incubator at 37° C. and continued to culture for 20 min.
Detection of p-SLP76 protein level. PathScan Phospho-SLP-76 (Ser376) Sandwich ELISA Kit was applied to detect p-SLP76 protein level. At the end of the Anti-CD3 beads stimulation, the cell culture plate was removed from the incubator. […] After lysis, the cell culture plate was centrifuged at 4° C., 400×g for 5 min. 25 μL of sample and 75 μL of sample diluent were added to each well, and the plate was placed in a 5% CO2 incubator at 37° C. for 2 h. The subsequent detection steps were carried out following the kit instructions, and the absorbance (OD value) of each well was read at 450 nm by a microplate reader.

| IC50 [1] [nM] | IC50 [2] [nM] | SMILES |
| --- | --- | --- |
| 0.43 | 226 | Cc1c[nH]c2ncc(-c3cc4c(c([C@@H]5CCCN5)c3)CN(C(=O)c3cnn(C5CC5)c3C)CC4)cc12 [Compound Z346, (S)-(1-cyclopropyl-5-methyl-1H-pyrazol-4-yl)-[6-(3-methyl-1H-pyrrolo[2,3-b]pyridin-5-yl)-8-[pyrrolidin-2-yl]-3,4-dihydroisoquinolin-2(1H)-yl]methanone] |
| 0.47 | 240 | Cc1ncc(C(=O)N2CCc3cc(-c4cnc5[nH]cc(C)c5c4)cc([C@@H]4CCCN4)c3C2)c(C(F)(F)F)n1 [Compound Z349, (S)-(6-(3-methyl-1H-pyrrolo[2,3-b]pyridin-5-yl)-8-(pyrrolidin-2-yl)-3,4-dihydroisoquinolin-2(1H)-yl) (2-methyl-4-(trifluoromethyl)pyrimidin-5-yl)methanone] |
| 1.89 | 494 | N#Cc1c[nH]c2ncc(-c3cc4c(c([C@@H]5CCCN5)c3)COCC4)cc12 [Compound Z190, (S)-5-(8-(pyrrolidin-2-yl)isochroman-6-yl)-1H-pyrrolo[2,3-b]pyridine-3-carbonitrile] |
| 0.58 | 204 | Cc1c[nH]c2ncc(-c3cc4c(c([C@@H]5CCCN5)c3)CN(C(=O)C3CCOCC3)CC4)cc12 [Compound Z127] |
| 2.06 | 441 | Cc1c[nH]c2ncc(-c3cc4c(c([C@@H]5CCCN5)c3)CCN(CC(F)(F)F)C4)cc12 [Compound Z308, (S)-7-(3-methyl-1H-pyrrolo[2,3-b]pyridin-5-yl)-5-(pyrrolidin-2-yl)-2-(2,2,2-trifluoroethyl)-1,2,3,4-tetrahydroisoquinoline] |
| 0.46 | 276 | Cc1c[nH]c2ncc(-c3cc4c(c([C@@H]5CCCN5)c3)COC3(CC3)C4)cc12 [Compound Z229, (S)-3-methyl-5-(8′-(pyrrolidin-2-yl)spiro[cyclopropane-1,3′-isochroman]-6′-yl)-1H-pyrrolo[2,3-b]pyridine] |
| 26.9 | 2840 | CCN(CC)Cc1cc(-c2cnc3[nH]cc(C)c3c2)cc2c1COCC2 [Compound Z110, N-ethyl-N-((6-(3-methyl-1H-pyrrolo[2,3-b]pyridin-5-yl)isochroman-8-yl)methyl)ethanamine] |
| 1.27 | 215 | Cc1c[nH]c2ncc(-c3cc4c(c([C@@H]5CCCN5)c3)CN(C(=O)c3ccncn3)CC4)cc12 [Compound Z221, (S)-(6-(3-methyl-1H-pyrrolo[2,3-b]pyridin-5-yl)-8-(pyrrolidin-2-yl)-3,4-dihydroisoquinolin-2(1H)-yl) (pyrimidin-4-yl)methanone] |
| 0.55 | 265 | COC(=O)N1CCc2cc(-c3cnc4[nH]cc(C)c4c3)cc([C@@H]3CCCN3)c2C1 [Compound Z34-1] |
| 0.62 | 126 | C[C@H](C#N)c1c[nH]c2ncc(-c3cc4c(c([C@@H]5CCCN5)c3)COCC4)cc12 (single isomer, unassigned) [Compound Z104-1] |
| 0.61 | 151 | COCc1cc(N2CCc3cc(-c4cnc5[nH]cc(C)c5c4)cc([C@@H]4CCCN4)c3C2)ccn1 [Compound Z247, (S)-2-(2-(methoxymethyl)pyridin-4-yl)-6-(3-methyl-1H-pyrrolo[2,3-b]pyridin-5-yl)-8-(pyrrolidin-2-yl)-1,2,3,4-tetrahydroisoquinoline] |
| 0.33 | 90.7 | Cc1ncc(C(=O)N2CCc3cc(-c4cnc5[nH]cc(C)c5c4)cc([C@@H]4CCCN4)c3C2)cn1 [Compound Z328, (S)-[6-(3-methyl-1H-pyrrolo[2,3-b]pyridin-5-yl)-8-[pyrrolidin-2-yl]-3,4-dihydroisoquinolin-2(1H)-yl](2-methylpyrimidin-5-yl)methanone] |
| 0.67 | 164 | Cc1c[nH]c2ncc(-c3cc4c(c([C@@H]5CCCN5)c3)COCC4)cc12 (single isomer, unassigned) [Compound Z97-2] |
| 1.32 | 735 | CC(=O)N1Cc2cc(-c3cnc4[nH]cc(C)c4c3)cc([C@@H]3CCCN3)c2C1 [Compound Z235, (S)-1-(6-(3-methyl-1H-pyrrolo[2,3-b]pyridin-5-yl)-4-(pyrrolidin-2-yl)isoindolin-2-yl)ethan-1-one] |
| 48.7 | 3570 | CN1CCc2cc(-c3cnc(N)c(-c4cnn(C)c4)c3)cc(C3CCCN3)c2C1 (stereo not drawn) [Compound Z4, 3-(1-methyl-1H-pyrazol-4-yl)-5-(2-methyl-8-(pyrrolidin-2-yl)-1,2,3,4-tetrahydroisoquinolin-6-yl)pyridin-2-amine] |
| 3.55 | 305 | Cc1c[nH]c2ncc(-c3cc4c(c(CNCC5CC5)c3)COCC4)cc12 [Compound Z112, 1-cyclopropyl-N-((6-(3-methyl-11H-pyrrolo[2,3-b]pyridin-5-yl)isochroman-8-yl)methyl)methanamine] |
| 0.87 | 239 | Cc1c[nH]c2ncc(-c3cc4c(c([C@@H]5CCCN5)c3)CCN(C(=O)[C@](C)(O)C(F)(F)F)C4)cc12 [Compound Z285-1, (S)-3,3,3-trifluoro-2-hydroxy-2-methyl-1-(7-(3-methyl-1H-pyrrolo[2,3-b]pyridin-5-yl)-5-((S)-pyrrolidin-2-yl)-3,4-dihydroisoquinolin-2(1H)-yl)propan-1-one] |
| 4.12 | 571 | Cc1c[nH]c2ncc(-c3cc4c(c(C(C)N(C)C)c3)COCC4)cc12 (stereo not drawn) [Compound Z108-1, N,N-dimethyl-1-(6-(3-methyl-1H-pyrrolo[2,3-b]pyridin-5-yl)isochroman-8-yl)ethan-1-amine] |
| 1.45 | 623 | CC(C)c1c[nH]c2ncc(-c3cc([C@@H]4CCCN4)c4cnccc4c3)cc12 (single isomer, unassigned) [Compound Z95-2] |
| 0.49 | 204 | c1cn2ccc(-c3c[nH]c4ncc(-c5cc6c(c([C@@H]7CCCN7)c5)COCC6)cc34)cc2n1 [Compound Z323] |
| 0.33 | 260 | Cc1c[nH]c2ncc(-c3cc4c(c([C@@H]5CCCN5)c3)CN(C(=O)c3ccncc3)CC4)cc12 [Compound Z124, (S)-(6-(3-methyl-1H-pyrrolo[2,3-b]pyridin-5-yl)-8-(pyrrolidin-2-yl)-3,4-dihydroisoquinolin-2(1H)-yl) (pyridin-4-yl)methanone] |
| 4.01 | 520 | CN(C)Cc1cc(-c2cnc3[nH]cc(Cl)c3c2)cc2c1COCC2 [Compound Z233, 1-(6-(3-chloro-1H-pyrrolo[2,3-b]pyridin-5-yl)isochroman-8-yl)-N,N-dimethylmethanamine] |

| SMILES | IC50 [1] [nM] | IC50 [2] [nM] |
| --- | --- | --- |
| Cc1c[nH]c2ncc(-c3cc4c(c([C@@H]5CCCN5)c3)CN(C(=O)c3cnn(C(C)C)c3C(F)(F)F)CC4)cc12 [Compound Z438, (S)-[1-isopropyl-5-(trifluoromethyl)-1H-pyrazol-4-yl]-[6-(3-methyl-1H-pyrrolo[2,3-b]pyridin-5-yl)-8-[pyrrolidin-2-yl]-3,4-dihydroisoquinolin-2(1H)-yl]methanone] | 1.13 | 339 |
| Cc1c[nH]c2ncc(-c3cc4c(c(CN5CC6CCC(C5)N6C)c3)COCC4)cc12 [Compound Z113, 3-methyl-5-(8-((8-methyl-3,8-diazabicyclo[3.2.1]octan-3-yl)methyl)isochroman-6-yl)-1H-pyrrolo[2,3-b]pyridine] | 62.2 | 10000 |
| Cc1c[nH]c2ncc(-c3cc4c(c([C@@H]5CCCN5)c3)CN(C(=O)N3CCO[C@H](C)C3)CC4)cc12 [Compound Z359-2, (6-(3-methyl-1H-pyrrolo[2,3-b]pyridin-5-yl)-8-((S)-pyrrolidin-2-yl)-3,4-dihydroisoquinolin-2(1H)-yl) ((R)-2-methylmorpholin)methanone] | 0.36 | 98.1 |
| Cc1c[nH]c2ncc(-c3cc4c(c([C@@H]5CCCN5)c3)CN(C(=O)N3CC5CCC(C3)O5)CC4)cc12 [Compound Z389, (8-oxa-3-azabicyclo[3.2.1]octan-3-yl)(6-(3-methyl-1H-pyrrolo[2,3-b]pyridin-5-yl)-8-((S)-pyrrolidin-2-yl)-3,4-dihydroisoquinolin-2(1H)-yl)methanone] | 0.21 | 47.1 |
| CO[C@H]1CCN(C(=O)N2CCc3cc(-c4cnc5[nH]cc(C)c5c4)cc([C@@H]4CCCN4)c3C2)C1 [Compound Z357-1] | 0.31 | 99.3 |
| Cc1c[nH]c2ncc(-c3cc4c(c([C@@H]5CCCN5)c3)CN(C(=O)[C@@H](O)c3ccccc3)CC4)cc12 [Compound Z290, (S)-2-hydroxy-1-(6-(3-methyl-1H-pyrrolo[2,3-b]pyridin-5-yl)-8-((S)-pyrrolidin-2-yl)-3,4-dihydroisoquinolin-2(1H)-yl)-2-acetophenone] | 0.77 | 272 |
| Cc1c[nH]c2ncc(-c3cc4c(c([C@@H]5CCCN5)c3)CN(C(=O)[C@H](O)c3ccccc3)CC4)cc12 [Compound Z289, (R)-2-hydroxy-1-(6-(3-methyl-1H-pyrrolo[2,3-b]pyridin-5-yl)-8-((S)-pyrrolidin-2-yl)-3,4-dihydroisoquinolin-2(1H)-yl)-2-acetophenone] | 1.35 | 378 |
| Cc1c[nH]c2ncc(-c3cc4c(c([C@@H]5CCCN5)c3)CN(C(=O)N3CCOCC3(C)C)CC4)cc12 [Compound Z361] | 0.36 | 102 |
